Values quoted from earlier work as cited in patent publication EP1450788B1, “USE OF COUMARIN OR ITS HYDROXY DERIVATIVE FOR THE TREATMENT OF MEDIUM OR SEVERE VASCULAR AND/OR LYMPHATIC EDEMA” (priority 2001, dated 2003).

Tests used:
[1] = test system: hepatic tissue; settings: oral doses of about 200 mg/day
[2] = test system: lymphoedema of the upper limbs; settings: 90 mg/day versus 135 mg/day; lymphoedema of the upper limbs secondary to surgery and irradiation for breast cancer

SMILES	haematic levels, transdermal route relative to oral route (transdermal administration versus oral route)	cytosolytic hepatocytic enzymes in the plasma (biochemical markers of the hepatic damage) [1]	clinical efficacy (apparent benefits of the two coumarin dosages) [2]	haematic levels by the transdermic route (transdermal administration)
O=c1ccc2ccccc2o1 [coumarin, 5,6-benzopyran-2-one]	10 fold	high concentrations	No difference was found	
O=c1ccc2ccc(O)cc2o1 [7-hydroxy-coumarin, 7-hydroxycoumarin]				a decrease of the haematic levels
